EP0028117A1, “Guanidine compounds, process for preparing them and compositions containing them” (SMITH KLINE & FRENCH LABORATORIES LIMITED, priority 1979, dated 1981)

Columns and labels:
histamine H2-receptors [1] = experiment: Inhibition of histamine-stimulated gastric acid secretion from lumen-perfused stomachs of anaesthetised rats; format: in vivo; details: i.v., lumen-perfused stomachs of rats anaesthetised with urethane
histamine H2-receptors [2] = molecular target: T1, histamine H2-receptors (Cavia porcellus, UniProt P47747); experiment: Inhibition of histamine-induced tachycardia in the isolated guinea pig atrium; details: read-out: effective dose producing 50% inhibition of the histamine-induced tachycardia
T1 construct: histamine-induced tachycardia in the isolated guinea pig atrium; from tissue; host or cells: isolated guinea pig atrium
T1 sequence (P47747 whole entry): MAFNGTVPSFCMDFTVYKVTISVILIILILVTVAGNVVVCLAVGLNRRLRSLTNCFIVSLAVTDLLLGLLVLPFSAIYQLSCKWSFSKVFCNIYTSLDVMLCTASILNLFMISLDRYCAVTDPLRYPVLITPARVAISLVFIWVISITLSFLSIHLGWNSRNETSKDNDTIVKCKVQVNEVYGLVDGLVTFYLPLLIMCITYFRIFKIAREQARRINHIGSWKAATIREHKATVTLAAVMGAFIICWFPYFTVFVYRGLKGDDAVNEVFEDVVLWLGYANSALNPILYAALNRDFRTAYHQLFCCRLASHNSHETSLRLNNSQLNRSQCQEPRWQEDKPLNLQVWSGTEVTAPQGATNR
Text: This procedure is referred to in Ash and Schild, Brit. J. Pharmac. Chemother., 1966. 27. […] For example, they inhibit the actions of histamine on the isolated guinea pig atrium.

IC50 (histamine H2-receptors [2]): < 1000 nM
Compound: N=C(N)Nc1nc(CSCCNc2[nH]ccc2[N+](=O)[O-])cs1 [Example 1, 2-[2-(2-Guanidino-4-thiazolylmethylthio)ethylamin]-3-nitropyrrole]
doses causing 50% inhibition of maximal acid secretion (histamine H2-receptors [1]): less than 0.1 micromole kg^-1
